Results taken from patent publication US20220226298A1, “GPR40 AGONISTS” (Kallyope, Inc., priority 2019, published 2022).

molecular target: T1, human GPR40 (Homo sapiens, UniProt O14842); assay: Inositol phosphate accumulation assay (IP1 HTRF) in CHO-K1 cells expressing human GPR40; format: cell-based; settings: 90 min stimulation
T1 construct: host or cells: CHO-K1
Experimental: CHO-KI cells expressing human GPR40 were purchased from DiscoverX (95-1005C2). HEK293 cells expressing mouse FFAR1 were prepared using a mouse FFAR1 carrying plasmid purchased from OriGene Technologies (MR222997). The cells were transfected using Lipofectamine 2000 using manufacturer instructions and stable cell line was established from a single cell using geneticine selection. Assay ready frozen (ARF) cells were prepared and used throughout the study.
The assay was performed in a 384-well plate format using IP1 assay kit from Cis-Bio. ARF cells expressing FFAR1 (mouse and human) were thawed, washed and then plated in the appropriate medium (F12 based medium for CHO hFFAR1 and DMEM based medium for HEK293 mFFAR1—both were supplemented with 10% FBS and penicillin/streptomycin). 20 μL of 3.5×10^5 cells/mL were plated on a Poly D-Lysine coated 384-well white plate. The cells were then incubated for 16 hr at 37° C./5% CO2. After 16 hr the medium was removed and 15 μL of stimulation buffer containing the test compounds was added to the cells. The plates were then incubated for 90 min at 37° C./5% CO2. 5 μL of detection buffer (prepared as described in the IP-one kit) was added to each well and the plates were incubated at RT for 1 hr.
[…] was measured using ClarioSTAR plate reader, calculating the ratio between emissions at 665 nm and 620 nm (HTRF ratio). HTRF ratio for positive (Max) and negative (Min) controls were used to normalize HTRF data and generate values for % activity. EC50 and Max activity values were determined using a standard 4-parameter fit.

T1 sequence (O14842 whole entry): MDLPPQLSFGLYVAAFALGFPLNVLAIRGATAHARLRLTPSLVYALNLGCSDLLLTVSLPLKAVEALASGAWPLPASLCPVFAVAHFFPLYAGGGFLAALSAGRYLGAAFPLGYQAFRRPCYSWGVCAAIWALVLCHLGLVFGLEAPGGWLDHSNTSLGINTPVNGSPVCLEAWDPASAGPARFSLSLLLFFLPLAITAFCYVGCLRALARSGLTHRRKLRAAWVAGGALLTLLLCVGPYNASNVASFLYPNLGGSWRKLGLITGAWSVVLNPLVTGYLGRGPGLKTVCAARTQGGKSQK

EC50 [nM] | Structure (SMILES)
10 to 100 | COc1cc(-c2cc(C)c(C(=O)Oc3cccc([C@@H](CC(=O)O)C4CC4)c3)cc2CN(C(C)C)C(C)C)c(F)cn1 [Compound 19]
≤ 10 | COc1cc(-c2cc(C)c(C(=O)Oc3cccc([C@H](C4CC4)[C@H](C)C(=O)O)c3)cc2CN(C(C)C)C(C)C)c(F)cn1 [Compound 21, (2S,3R)-3-cyclopropyl-3-(3-((5-((diisopropylamino)methyl)-4-(5-fluoro-2-methoxypyridin-4-yl)-2-methylbenzoyl)oxy)phenyl)-2-methylpropanoic acid]
≤ 10 | CC(c1cc(C(F)(F)F)ccc1C(F)(F)F)N1CCC(C(=O)Oc2cccc([C@H](C3CC3)[C@H](C)C(=O)O)c2)CC1 (stereo partly drawn) [Compound 22, (2S,3R)-3-(3-((1-(1-(2,5-bis(trifluoromethyl)phenyl)ethyl)piperidine-4-carbonyl)oxy)phenyl)-3-cyclopropyl-2-methylpropanoic acid]
> 500 | COc1cc(-c2cnc(C(=O)Oc3cccc([C@@H](CC(=O)O)C4CC4)c3)cn2)c(F)cn1 [Compound 23]
≤ 10 | COc1cc(-c2cc(F)c(C(=O)Oc3cccc([C@H](C4CC4)[C@H](C)C(=O)O)c3)cc2CN(C(C)C)C(C)C)ccn1 [Compound 24]
≤ 10 | COc1cc(-c2ccc(C(=O)Oc3cccc([C@H](C4CC4)[C@H](C)C(=O)O)c3)cc2)c(F)cn1 [Compound 25]
≤ 10 | COc1cc(-c2ccc(C(=O)Oc3cccc([C@H](C4CC4)[C@H](C)C(=O)O)c3)cc2)ccn1 [Compound 27]
≤ 10 | COc1cc(-c2ccc(C(=O)Oc3cccc([C@H](C4CC4)[C@H](C)C(=O)O)c3)cc2CN(C(C)C)C(C)C)ccn1 [Compound 28]
≤ 10 | COc1cc(-c2ccc(C(=O)Oc3cccc([C@H](C4CC4)[C@H](C)C(=O)O)c3)c(C)c2)ccn1 [Compound 29]
≤ 10 | CCN(Cc1cc(C(=O)Oc2cccc([C@H](C3CC3)[C@H](C)C(=O)O)c2)ccc1-c1cc(OC)ccc1F)C(C)C [Compound 30]
≤ 10 | COc1ccc(C(=O)N(CC(C)(C)C)c2cccc(C)n2)c(-c2ccc(C(=O)Oc3cccc([C@H](C4CC4)[C@H](C)C(=O)O)c3)c(C)c2)c1 [Compound 31, (2S,3R)-3-cyclopropyl-3-(3-((5′-methoxy-3-methyl-2′-((6-methylpyridin-2-yl)(neopentyl)carbamoyl)-[1,1′-biphenyl]-4-carbonyl)oxy)phenyl)-2-methylpropanoic acid]
≤ 10 | COc1cc(-c2ccc(C(=O)Oc3cccc([C@H](C4CC4)[C@H](C)C(=O)O)c3)cc2CN2CCCC2(C)C)c(F)cn1 [Compound 32]
≤ 10 | COc1cc(-c2ccc(C(=O)Oc3cccc([C@H](C4CC4)[C@H](C)C(=O)O)c3)cc2CN2CCC(C)(C)C2)c(F)cn1 [Compound 33, (2S,3R)-3-cyclopropyl-3-[3-[3-[(3,3-dimethylpyrrolidin-1-yl)methyl]-4-(5-fluoro-2-methoxy-4-pyridyl)benzoyl]oxyphenyl]-2-methyl-propanoic acid]
≤ 10 | CCN(Cc1cc(C(=O)Oc2cccc([C@H](C3CC3)[C@H](C)C(=O)O)c2)ccc1-c1cc(OC)ncc1F)C(C)C [Compound 34, (2S,3R)-3-cyclopropyl-3-(3-((3-((ethyl(isopropyl)amino)methyl)-4-(5-fluoro-2-methoxypyridin-4-yl)benzoyl)oxy)phenyl)-2-methylpropanoic acid]
> 500 | COc1cc(-c2ccc(C(=O)Oc3cccc([C@H](C4CC4)[C@H](C)C(=O)O)c3)cc2CN(C[C@H](O)[C@@H](O)[C@H](O)[C@H](O)CO)C(C)C)c(F)cn1 [Compound 35, (2S,3R)-3-cyclopropyl-3-(3-((4-(5-fluoro-2-methoxypyridin-4-yl)-3-((isopropyl((2S,3R,4R,5R)-2,3,4,5,6-pentahydroxyhexyl)amino)methyl)benzoyl)oxy)phenyl)-2-methylpropanoic acid]
≤ 10 | CCN(Cc1cc(C(=O)Oc2cccc([C@H](C3CC3)[C@@](C)(F)C(=O)O)c2)ccc1-c1cc(OC)ncc1F)C(C)C [Compound 37]
≤ 10 | CCN(Cc1cc(C(=O)Oc2cccc([C@H](C3CC3)[C@@](C)(F)C(=O)O)c2)ccc1-c1cc(OC)ccc1F)C(C)C [Compound 38]
≤ 10 | COc1cc(-c2cc(F)c(C(=O)Oc3cccc([C@H](C4CC4)[C@@](C)(F)C(=O)O)c3)cc2CN(C(C)C)C(C)C)ccn1 [Compound 39]
≤ 10 | COc1ccc(F)c([C@H]2CC[C@H](C(=O)Oc3cccc([C@H](C4CC4)[C@H](C)C(=O)O)c3)CC2)c1 [Compound 40, (2S,3R)-3-cyclopropyl-3-(3-(((1r,4R)-4-(2-fluoro-5-methoxyphenyl)cyclohexanecarbonyl)oxy)phenyl)-2-methylpropanoic acid]
100 to 500 | COc1ccc(F)c(-c2ccc(OC(=O)c3cccc([C@@H](CC(=O)O)C4CC4)c3)cc2)c1 [Compound 41]

EC50 [nM] | Structure (SMILES)
> 500 | O=C(O)C[C@H](c1cccc(C(=O)O)c1)C1CC1 [Compound 42]
100 to 500 | O=C(O)C[C@H](c1cccc(C(=O)Oc2ccc(-c3cc(O)ccc3F)cc2)c1)C1CC1 [Compound 43]
100 to 500 | COc1cc(-c2ccc(OC(=O)c3cccc([C@@H](CC(=O)O)C4CC4)c3)cc2)c(F)cn1 [Compound 44]
100 to 500 | COc1ccc(F)c(-c2ccc(OC(=O)c3cccc([C@@H](CC(=O)O)C4CC4)c3)c(C)c2)c1 [Compound 45, (S)-3-cyclopropyl-3-(3-(((2′-fluoro-5′-methoxy-3-methyl-[1,1′-biphenyl]-4-yl)oxy)carbonyl)phenyl)propanoic acid]
> 500 | CC(c1cc(C(F)(F)F)ccc1C(F)(F)F)N1CCC(OC(=O)c2cccc([C@@H](CC(=O)O)C3CC3)c2)CC1 (stereo partly drawn) [Compound 46, (3S)-3-(3-(((1-(1-(2,5-bis(trifluoromethyl)phenyl)ethyl)piperidin-4-yl)oxy)carbonyl)phenyl)-3-cyclopropylpropanoic acid]
> 500 | CC(c1cc(C(F)(F)F)ccc1C(F)(F)F)N1CC(OC(=O)c2cccc([C@@H](CC(=O)O)C3CC3)c2)C1 (some centres unmarked) [Compound 47]
> 500 | CC(c1cc(C(F)(F)F)ccc1C(F)(F)F)N1CC[C@@H](OC(=O)c2cccc([C@@H](CC(=O)O)C3CC3)c2)C1 (some centres unmarked) [Compound 48]
> 500 | CC(c1cc(C(F)(F)F)ccc1C(F)(F)F)N1CC[C@H](OC(=O)c2cccc([C@@H](CC(=O)O)C3CC3)c2)C1 (some centres unmarked) [Compound 49]
> 500 | COc1cc(-c2ccc(C(=O)Oc3cccc([C@H](C4CC4)[C@H](C)C(=O)O)c3)c(C)c2)c(C(=O)NCCO)cn1 [Compound 51]
> 500 | COc1cc(-c2ccc(C(=O)Oc3cccc([C@H](C4CC4)[C@H](C)C(=O)O)c3)c(C)c2)c(C(=O)N(CCO)CCO)cn1 [Compound 52]
≤ 10 | COC(=O)c1cnc(OC)cc1-c1ccc(C(=O)Oc2cccc([C@H](C3CC3)[C@H](C)C(=O)O)c2)cc1CN(C(C)C)C(C)C [Compound 53]
≤ 10 | COc1cc(-c2ccc(OC(=O)c3cccc([C@H](C4CC4)[C@H](C)C(=O)O)c3)cc2)c(F)cn1 [Compound 54]
≤ 10 | COc1cc(-c2ccc(OC(=O)c3cccc([C@H](C4CC4)[C@H](C)C(=O)O)c3)c(CN(C(C)C)C(C)C)c2)c(F)cn1 [Compound 55]
≤ 10 | COc1cc(-c2ccc(OC(=O)c3cccc([C@H](C4CC4)[C@H](C)C(=O)O)c3)c(C)c2)c(F)cn1 [Compound 56]
≤ 10 | CCN(Cc1cc(OC(=O)c2cccc([C@H](C3CC3)[C@H](C)C(=O)O)c2)ccc1-c1cc(OC)ncc1F)C(C)C [Compound 57]
≤ 10 | COc1cc(-c2ccc(OC(=O)c3cccc([C@H](C4CC4)[C@H](C)C(=O)O)c3)cc2CN(C(C)C)C(C)C)c(F)cn1 [Compound 58]
≤ 10 | COc1cc(-c2cc(F)c(OC(=O)c3cccc([C@H](C4CC4)[C@H](C)C(=O)O)c3)cc2CN(C(C)C)C(C)C)ccn1 [Compound 59, (2S,3R)-3-cyclopropyl-3-(3-((5-((diisopropylamino)methyl)-2-fluoro-4-(2-methoxypyridin-4-yl)phenoxy)carbonyl)phenyl)-2-methylpropanoic acid]
≤ 10 | COc1cc(-c2cc(F)c(OC(=O)c3cccc([C@H](C4CC4)[C@H](C)C(=O)O)c3)cc2CN(C(C)C)C(C)C)c(F)cn1 [Compound 60]
≤ 10 | COc1cc(-c2cc(C)c(OC(=O)c3cccc([C@H](C4CC4)[C@H](C)C(=O)O)c3)cc2CN(C(C)C)C(C)C)c(F)cn1 [Compound 61]
≤ 10 | COc1ccc(F)c([C@H]2CC[C@H](C(=O)Oc3cccc([C@H](C4CC4)[C@@](C)(F)C(=O)O)c3)CC2)c1 [Compound 62]

Structure (SMILES) | EC50 [nM]
CC(c1cc(C(F)(F)F)ccc1C(F)(F)F)N1CCN(C(=O)Oc2cccc([C@@H](CC(=O)O)C3CC3)c2)CC1 (stereo partly drawn) [Compound 20, (3S)-3-(3-((4-(1-(2,5-bis(trifluoromethyl)phenyl)ethyl)piperazine-1-carbonyl)oxy)phenyl)-3-cyclopropylpropanoic acid] | 10 to 100
